# Reference: patent US20110151455A1, “Fish-ribosyn for antibiotic susceptibility testing” (University of South Florida, priority 2006, published 2011)
# “Also recorded” adds a separate entry of the source.
# Columns and labels:
# [1] = tested on: Acinetobacter baumannii^T; experiment: Minimum inhibitory concentration (MIC) determination; assay type: cell-based; conditions: ATCC19606, A. baumannii^T, ATCC 19606
# [2] = tested on: Acinetobacter baumannii CBD1311; experiment: as above; assay type: cell-based; conditions: A. baumannii CBD1311
# A. baumannii CBD1311 = experiment: FISH-RiboSyn antibiotic susceptibility testing (rate of ribosome synthesis, pre-16S rRNA); assay type: cell-based, Acinetobacter baumannii; conditions: 30 minutes of antibiotic exposure; for dF/dtcm (rate of ribosome synthesis): doxycycline 8 μg/mL or levofloxacin 2 μg/mL
# Description: (§1) Sample collection. When it was observed that a culture was in mid-log growth phase (OD of approximately 0.4) 50 mL of the culture was transferred to a sterile flask and subjected to chloramphenicol at a final concentration of 200 mg/L. Samples (1 mL) were collected from the sub-culture every five minutes (including a sample at time zero) for a total of 20 minutes. Each sample was centrifuged at 10,000 G for 2 minutes, the supernatant was decanted, and the resulting cell pellet was resuspended in 1 mL of 4% PFA for 12-24 hours. The samples were centrifuged and supernatant decanted, as previously described, and resuspended in 2 mL of ethanol PBS (EtOH-PBS). The samples were stored at −20° C. until further analysis.
# (§2) To test the effects of the antibiotic doxycycline, doxycycline (Fisher Scientific) stock solution (1 mg/mL) was added to 100-mL of fresh, sterile nutrient broth for a final concentration of 8 μg/mL. A sample from an actively growing culture (10 mL) was added to the doxycycline/nutrient broth for a final volume of 110 mL. The aforementioned transfers were performed for both the resistant strain A. baumannii CBD1311 (OD=0.378) and a susceptible strain A. baumannii^T (OD=0.324). […] Transfers were performed for A. baumannii CBD1311 (OD=0.338) and A. baumannii^T (OD=0.365) and the dilutions were sufficient to ensure that the culture was below a McFarland standard of 0.5. Additionally, controls were implemented for each transfer where an additional 10 mL of the appropriate culture was combined with 100 mL of fresh sterile nutrient broth without an antibiotic. All cultures were incubated at 32° C. and shaken continuously (200 rpm).
# (§3) A fluorescently-labeled oligonucleotide hybridization probe, Acin1543, targeting the pre-16S rRNA for members of the genus Acinetobacter was synthesized (5′-[…]-3′) (SEQ ID NO:1) and conjugated with the cyanine dye, Cy3, before purification with oligonucleotide probe purification cartridges (Oerther et al. (2000b)). Fluorescently labeled probes were diluted to 50 ng/μL with RNase-free water and stored at −20° C. in the dark. Fixed samples were applied to a sample well on a 10 well Heavy Teflon Coated microscope slide (Cel-Line Associates, New Field, N.J.) and air-dried. After dehydration with an increasing ethanol series (50, 80, 95% [vol/vol] ethanol, 1 min each), each sample well was covered with a mixture of 18 μL of hybridization buffer (20% [vol/vol] formamide, 0.9 M NaC1, 100 mM Tris HCl [pH 7.0], 0.1% SDS) (DelosReyes et al. (1997)) and 2 μL of the stock fluorescently labeled oligonucleotide probe. The hybridizations were conducted in a moisture chamber containing excess hybridization buffer (to prevent dehydration of buffer on sample wells) for 1.5 h, in the dark, at 46° C. The slides were washed for 30 min at 48° C. with 50 mL of pre-warmed washing buffer solution (215 mM NaCl, 20 mM Tris HCl [pH 7.0], 0.1% SDS, and 5 mM EDTA) (DelosReyes et al. (1997)). Fixed, hybridized cells were mounted with Type FF immersion oil (Cargille, Cedar Grove, N.J.) and a cover slip. Cells were stained with 4′, 6-diamidino-2-phenylindole (DAPI) at a concentration of 1 μg/mL for 1 minute and rinsed with DI water.
# (§4) Image Capture. Whole cell fluorescence was visualized with an upright epiflourescence microscope (Leitz DiaPlan, Heerbrugg, Switzerland), and digital images were captured using a Spot-FLEX charge coupled device (CCD) camera (Diagnostic Instruments, Inc., Sterling Heights, Mich.). Images were collected using a 100× oil objective and constant exposure time (1.1 sec for experiment I; 3.0 sec for experiment 2) and gain of 2.
# A. baumannii^T [3] = experiment: as above; assay type: cell-based, Acinetobacter baumannii; conditions: for initial mean whole cell fluorescence: prior to chloramphenicol, 8-bit intensity
# Description: as §1, §2, §3, §4
# A. baumannii^T [4] = experiment: Growth of antibiotic treated culture by optical density (OD); assay type: cell-based, Acinetobacter baumannii; conditions: susceptible strain; levofloxacin 2 μg/mL
# Description: Culturing. Four Acinetobacter strains (Table 1) were maintained on nutrient agar (Difco) at 35° C. Prior to each experiment, a single colony was used to inoculate an overnight culture of nutrient broth (Difco). Experimental cultures were prepared by transferring 1 mL of culture to a flask containing 100 mL of nutrient broth. The relationship between optical density (OD at 600 nm) and cell concentration (CFU/mL) was determined by collecting samples between an OD of 0.1 and 0.6. The samples were serially diluted (10^−4-10^−7) in sterile nutrient broth and 100 μL of diluted sample was spread on nutrient agar plates in replicates of 5. After 24 hours of incubation at 35° C., colonies were counted on plates which contained between 20 and 200 colonies.
# To test the effects of the antibiotic doxycycline, doxycycline (Fisher Scientific) stock solution (1 mg/mL) was added to 100-mL of fresh, sterile nutrient broth for a final concentration of 8 μg/mL. A sample from an actively growing culture (10 mL) was added to the doxycycline/nutrient broth for a final volume of 110 mL. The aforementioned transfers were performed for both the resistant strain A. baumannii CBD1311 (OD=0.378) and a susceptible strain A. baumannii^T (OD=0.324). […]
# [5] = tested on: Acinetobacter lwoffii (ATCC 15309); experiment: FISH-RiboSyn of antibiotic treated batch cultures (dF/dt); assay type: cell-based; parameters: ratio of dF/dt compared to the control: concentration or dose not given beside the values; conditions: for effect on ribosome synthesis: in words
# Description: Acinetobacter lwoffii (ATCC 15309) was cultured on nutrient agar plates inoculated from a frozen glycerol/bead stock. After incubation for 24 hours at 32° C., a single colony was removed from the plate with a sterile loop and streaked on a second nutrient agar plate. The sterile loop was then submerged in a test tube containing 10 mL of […] which was incubated for 12 hours and 1 mL of grown culture was added to 1 mL of 4% paraformaldehyde (PFA) and incubated for 1 hour. The sample was then centrifuged at 10,000 G for 5 minutes, the supernatant decanted, and the cell pellet resuspended in ethanol PBS. Fluorescence in situ hybridization (FISH) with a genus specific probe was performed on this sample to verify culture purity before proceeding with the experiment. After culture purity was verified, the plated culture was incubated for 24 hours and a single colony was picked with a sterile loop and transferred to a 10 mL test tube of nutrient broth and incubated for 14 hours. The primary culture for this experiment was inoculated by transferring 1 mL from the test tube to a 100 mL nutrient broth flask. The optical density (OD at wavelength of 600 nm) of the culture was monitored over time until OD=0.449. At this time 10 mL of culture was transferred to four separate flasks containing 90 mL of nutrient broth and an appropriate amount of antibiotic. […] (Wisplinghoff et al. (2000)). Flask 4 was untreated as a control culture. At the same time, 9 mL of the primary culture was added to a 50 mL conical containing 1 mL of 1 mg/mL chloramphenicol for a final concentration of 100 μg/mL. Samples of 1 mL were taken from the chloramphenicol treated cell culture at 0, 5, 10, 15, and 20 minutes and incubated in 1 mL of 4% PFA for at least one hour. These samples were then centrifuged at 10,000 G for 5 minutes, the supernatant decanted and cell pellets resuspended in ethanol PBS and stored at −20° C. until evaluated by FISH.
# A dilution series of a growing culture of A. lwoffii was previously used to determine the relationship between OD (at 600 nm) and CFU/mL by plating diluted samples on nutrient agar plates at various values of OD and performing plate counts.
# Treated flasks were allowed to incubate for 30 minutes and which time 9 mL of the primary culture was added to a 50 mL conical containing 1 mL of 1 mg/mL chloramphenicol for a final concentration of 100 μg/mL. Samples of 1 mL were taken from the chloramphenicol treated cell culture at 0, 5, 10, 15, and 20 minutes and incubated in 1 mL of 4% PFA for at least one hour. These samples were then centrifuged at 10,000 G for 5 minutes, the supernatant decanted and cell pellets resuspended in ethanol PBS and stored at −20° C. until evaluated by FISH. This was repeated for each flask at 90, 150, and 210 minutes of incubation with the antibiotic.
# All images were analyzed using the Image-Pro Plus (v6.2.0.424) software package. Only single cells or diplococci were included in analysis. Images were thresholded using the “Automatic Bright Objects” option in the measurement console. Occasionally this algorithm excluded dim objects if bright objects were present. In these cases the manual thresholding was used to find the optimal thresholding range. […] The highest size threshold used for these cells was 5,000 pixels^2.
# [6] = tested on: Acinetobacter lwoffii (ATCC 15309); experiment: Optical density of antibiotic treated batch cultures; assay type: cell-based; conditions: experimental batch culture compared to control
# Description: Acinetobacter lwoffii (ATCC 15309) was cultured on nutrient agar plates inoculated from a frozen glycerol/bead stock. After incubation for 24 hours at 32° C., a single colony was removed from the plate with a sterile loop and streaked on a second nutrient agar plate. The sterile loop was then submerged in a test tube containing 10 mL of […] which was incubated for 12 hours and 1 mL of grown culture was added to 1 mL of 4% paraformaldehyde (PFA) and incubated for 1 hour. The sample was then centrifuged at 10,000 G for 5 minutes, the supernatant decanted, and the cell pellet resuspended in ethanol PBS. Fluorescence in situ hybridization (FISH) with a genus specific probe was performed on this sample to verify culture purity before proceeding with the experiment. After culture purity was verified, the plated culture was incubated for 24 hours and a single colony was picked with a sterile loop and transferred to a 10 mL test tube of nutrient broth and incubated for 14 hours. The primary culture for this experiment was inoculated by transferring 1 mL from the test tube to a 100 mL nutrient broth flask. The optical density (OD at wavelength of 600 nm) of the culture was monitored over time until OD=0.449. […] These samples were then centrifuged at 10,000 G for 5 minutes, the supernatant decanted and cell pellets resuspended in ethanol PBS and stored at −20° C. until evaluated by FISH.
# [7] = 90 minutes of antibiotic exposure, doxycycline 8 μg/mL or levofloxacin 2 μg/mL
# [8] = antibiotic exposure 30 min, ampicillin 2 μg/mL, ciprofloxacin 0.25 μg/mL, doxycycline 500 μg/mL
SMILES,MIC [1] [µg/mL],MIC [2] [µg/mL],dF/dtcm (rate of ribosome synthesis) (A. baumannii CBD1311),dF/dtcm (rate of ribosome synthesis) (A. baumannii^T [3]; [7]),"dF/dt [5, 8]",dF/dt ([5]; antibiotic exposure 90 min),dF/dt ([5]; antibiotic exposure 150 min),dF/dt ([5]; antibiotic exposure 210 min),effect on ribosome synthesis [5],ratio of dF/dt compared to the control ([5]; antibiotic exposure 30 min) [%],ratio of dF/dt compared to the control ([5]; antibiotic exposure 90 min) [%],ratio of dF/dt compared to the control ([5]; antibiotic exposure 210 min) [%],also measured
C[C@H]1COc2c(N3CCN(C)CC3)c(F)cc3c(=O)c(C(=O)O)cn1c23 [levofloxacin],0.25,8,5.84,1.67,,,,,,,,,"dF/dtcm (rate of ribosome synthesis) (A. baumannii^T [3]; 30 minutes of antibiotic exposure, doxycycline 8 μg/mL or levofloxacin 2 μg/mL): 2.23; initial mean whole cell fluorescence (A. baumannii^T [3]; 90 minutes of antibiotic exposure): 71; reduction in dF/dtcm compared to the control (A. baumannii^T [3]; 90 minutes of levofloxacin exposure): > 50%; dF/dtcm (rate of ribosome synthesis) (A. baumannii^T [3]; after 60 minutes of exposure to levofloxacin (so in the source), 2 μg/mL): 1.67; delay before cessation of growth (A. baumannii^T [4]): 60 min"
O=C(O)c1cn(C2CC2)c2cc(N3CCNCC3)c(F)cc2c1=O [Ciprofloxacin],,,,,4.46,2.42,0.254,0.308,appear to not be synthesizing ribosomes after 150 min,,,,
CC1(C)S[C@@H]2[C@H](NC(=O)[C@H](N)c3ccccc3)C(=O)N2[C@H]1C(=O)O [Ampicillin],,,,,4.7,5.06,2.86,0,impacted by the ampicillin after exposure for 150 and 210 min; also recorded: greater dF/dt than the control cells,93,152,0,cell morphology ([5]; long exposures (T=150 min)): elongated cells; impact on optical density [6]: mild impact
C[C@H]1c2cccc(O)c2C(=O)C2=C(O)[C@]3(O)C(=O)C(C(N)=O)=C(O)[C@@H](N(C)C)[C@@H]3[C@@H](O)[C@@H]21 [doxycycline],≤ 0.125,16,4.95,1.38,0.1238,0,0,0,,2,0,0,"initial mean whole cell fluorescence (A. baumannii CBD1311; prior to chloramphenicol, 8-bit intensity): approximately 26; initial mean whole cell fluorescence (A. baumannii^T [3]; 30 minutes of antibiotic exposure): 59.6"
